These results are taken from BindingDB's records for patent US20250034122 (Mission Therapeutics, 2025).

A word on the IC50: it is the concentration at which inhibition is half-maximal. Lower therefore signals greater potency.

In the experiment the target is T1, Ubiquitin carboxyl-terminal hydrolase 30 (Homo sapiens, UniProt Q70CQ3).
T1 sequence (Q70CQ3 whole entry): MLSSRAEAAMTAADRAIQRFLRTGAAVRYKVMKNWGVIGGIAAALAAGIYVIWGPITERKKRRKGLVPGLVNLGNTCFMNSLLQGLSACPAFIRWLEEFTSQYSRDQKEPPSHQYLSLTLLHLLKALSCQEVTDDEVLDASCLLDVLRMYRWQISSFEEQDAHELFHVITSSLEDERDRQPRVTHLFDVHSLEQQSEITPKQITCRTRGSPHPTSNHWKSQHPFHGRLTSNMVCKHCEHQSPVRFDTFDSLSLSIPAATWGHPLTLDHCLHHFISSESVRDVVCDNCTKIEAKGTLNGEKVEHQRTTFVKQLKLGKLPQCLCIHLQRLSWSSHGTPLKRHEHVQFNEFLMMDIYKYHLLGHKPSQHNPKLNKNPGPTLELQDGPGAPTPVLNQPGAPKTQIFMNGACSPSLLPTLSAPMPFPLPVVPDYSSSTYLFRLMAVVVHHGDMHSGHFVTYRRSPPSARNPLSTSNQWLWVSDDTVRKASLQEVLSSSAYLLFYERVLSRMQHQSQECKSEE
Description: USP30 Biochemical IC50 Assay. As for the experimental part: A typical 8-point dilution series would be 100, 30, 10, 3, 1, 0.3, 0.1, 0.03 μM final.

As for `N#CN1C[C@H](NC(=O)C2NC(c3cccc(C(F)(F)F)c3)=CO2)C[C@H]1Cn1cccn1` (stereo partly specified) [US20250034122, Example 30], the IC50 came out at 0.011 µM.
